From patent publication US20070077607A1, “Novel screening method” (priority 2003, published 2007)
Read-outs that look alike come from different tables or passages of the source.

How the values were obtained:
HOB cells = assay: Cell adhesion assay (cell attachment and cell spreading), HOB cells; type: cell-based, human; settings: for inhibition at 5 µM: Homo sapiens
Method: To evaluate cell attachment and cell spreading exponentially growing cells were detached from substratum by trypsinisation (0.25% (v/v) trypsin in 5 mM EDTA), collected into medium containing a ˜7% (V/V) final concentration of FCS, washed twice with medium without serum and then plated (2×10^4cells/well) onto FN-coated 96-well plates with and without further immobilisation of tTG. After a maximum of 20-minute incubation (to minimise the effect of any endogenous secreted proteins) at 37° C. in a 5% CO2 atmosphere, cells were fixed in 3.7% (w/v) paraformaldehyde in PBS pH 7.4, permeabilised in 0.1% (v/v) Triton X-100 and stained with May Grunwald and Giemsa stain (Jones et al 1997, Verderio et al. 2000). In some cases cells were pre-treated for 15 hours with 1 mM cycloheximide before plating to rule out any effects of endogenous secreted adhesion molecules. Digital images of three non-overlapping fields covering the central portion of each well was captured using a video digital camera (Olympus DP10) and examined using the Image Analysis programme Scion Image (National Institute of Health, USA). A total of at least nine images of separate fields per sample were examined for a total of at least 900 cells in the FN control. The number of cell particles in each field was measured by thresholding and particle analysis setting a minimum particle size of 50 pixels. Spread cells were analysed and quantified by “density slicing” and particle analysis.
Adhesion of cells to FN was decreased by pre-incubation with RGD synthetic peptide (50 μg/ml, ˜75 ∝M, 100 μg/ml ˜150 μM, or 200 μg/ml ˜300 μM) or function blocking anti-integrin antibodies 40 μg/ml anti-β1 integrin (JB1A), 30 μg/ml anti-α5 integrin (P1D6). Detached cells (as described above) were pre-incubated in suspension (2×10^5cells/ml) in serum-free medium containing either RGD peptide or anti-integrins antibodies at 37° C. for 10 minutes in 5% CO2 atmosphere, and then seeded in the presence of the peptides.

guinea pig liver tTG = target: T1, guinea pig liver tTG (Cavia cutleri, UniProt P08587); assay: tTG cross-linking activity (incorporation of biotinylated cadaverine into FN); type: biochemical
T1 construct: Purified guinea pig liver tTG was either obtained by Sigma-Aldrich or purified in the laboratory; tissue Sigma-Aldrich (or purified in the laboratory according to Leblanc et al., 1999); host or cells: guinea pig liver
T1 sequence (P08587 2-690): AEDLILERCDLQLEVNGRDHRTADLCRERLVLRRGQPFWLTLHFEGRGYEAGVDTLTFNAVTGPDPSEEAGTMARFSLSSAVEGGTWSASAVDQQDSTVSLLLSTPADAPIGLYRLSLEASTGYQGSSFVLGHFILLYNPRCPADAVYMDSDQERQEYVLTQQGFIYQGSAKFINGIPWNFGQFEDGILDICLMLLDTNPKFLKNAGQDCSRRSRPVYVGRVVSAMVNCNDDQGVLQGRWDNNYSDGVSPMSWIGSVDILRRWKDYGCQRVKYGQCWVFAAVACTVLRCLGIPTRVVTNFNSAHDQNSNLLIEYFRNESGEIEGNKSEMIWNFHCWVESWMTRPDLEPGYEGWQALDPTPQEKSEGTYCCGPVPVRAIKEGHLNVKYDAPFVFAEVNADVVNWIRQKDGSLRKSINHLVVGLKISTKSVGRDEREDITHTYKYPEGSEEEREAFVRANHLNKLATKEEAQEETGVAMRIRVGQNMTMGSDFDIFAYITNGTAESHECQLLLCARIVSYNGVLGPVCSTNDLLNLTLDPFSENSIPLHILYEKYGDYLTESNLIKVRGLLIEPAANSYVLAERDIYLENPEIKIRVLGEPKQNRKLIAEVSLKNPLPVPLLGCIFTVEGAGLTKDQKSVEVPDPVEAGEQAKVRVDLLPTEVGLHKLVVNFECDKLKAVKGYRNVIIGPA
Method: (§1) The wells of a 96-well plate (0.32 cm^2) were coated with human plasma FN (5 μg/ml) in 50 mM Tris-HCl, pH 7.4, […], by incubation at 4° C. for approximately 15 h. For tTG immobilisation, the FN solution was removed, the wells were washed once in 50 mM Tris-HCl, pH 7.4 and then incubated with purified guinea pig liver tTG (20 μg/ml) in PBS pH 7.4 containing 2 mM EDTA pH 7.4, 100 μl/well. For control wells coated with tTG only, the tTG solution was added directly to tissue culture plastic (TCP). After one hour-incubation at 37° C., the tTG solution was removed and wells were washed once in 50 mM Tris-HCl, pH 7.4 and once in serum-free culture medium before cell seeding. The presence of tTG immobilised on FN was confirmed by an ELISA-type assay (Jones et al. 1997), using Cub 74 (1:5000). Absorbance values were read in an ELISA plate reader at 450 nm (Tecan Spectrafluor). Confirmation that the immobilised tTG was still active as a Ca^2+-dependent ε-(γ-glutamyl)lysine crosslinker was gained by measuring tTG activity with a microtitre assay that is based on the incorporation of biotinylated cadaverine into FN in the presence of 5 mM CaCl2 and 5 mM DTT (Jones et al. 1997) and compared with the activity of free tTG standard. To confirm that the cross-linking activity was Ca^2+-dependent, 5 mM CaCl2 was replaced with 5 mM EDTA pH 7.4. Absorbance values were read at 450 nm and data were expressed as absorbance value with Ca^2+ in the reaction buffer minus background absorbance value with EDTA in the reaction buffer. Similarly to tTG, FN antigen was detected by using a modified ELISA based on a rabbit polyclonal anti-FN antibody (1/5000) followed by peroxidase-labelled anti-rabbit IgG (1/5000).

[1] = target: T2, tTG activity found at the HOB cell-surface (Homo sapiens, UniProt P21980); assay: tTG activity at the HOB cell-surface; type: cell-based; settings: R283 treatment; data not shown
T2 construct: the low tTG activity found at the HOB cell-surface; endogenous in cells; host or cells: primary human osteoblasts (HOB)
T2 sequence (P21980 1-687): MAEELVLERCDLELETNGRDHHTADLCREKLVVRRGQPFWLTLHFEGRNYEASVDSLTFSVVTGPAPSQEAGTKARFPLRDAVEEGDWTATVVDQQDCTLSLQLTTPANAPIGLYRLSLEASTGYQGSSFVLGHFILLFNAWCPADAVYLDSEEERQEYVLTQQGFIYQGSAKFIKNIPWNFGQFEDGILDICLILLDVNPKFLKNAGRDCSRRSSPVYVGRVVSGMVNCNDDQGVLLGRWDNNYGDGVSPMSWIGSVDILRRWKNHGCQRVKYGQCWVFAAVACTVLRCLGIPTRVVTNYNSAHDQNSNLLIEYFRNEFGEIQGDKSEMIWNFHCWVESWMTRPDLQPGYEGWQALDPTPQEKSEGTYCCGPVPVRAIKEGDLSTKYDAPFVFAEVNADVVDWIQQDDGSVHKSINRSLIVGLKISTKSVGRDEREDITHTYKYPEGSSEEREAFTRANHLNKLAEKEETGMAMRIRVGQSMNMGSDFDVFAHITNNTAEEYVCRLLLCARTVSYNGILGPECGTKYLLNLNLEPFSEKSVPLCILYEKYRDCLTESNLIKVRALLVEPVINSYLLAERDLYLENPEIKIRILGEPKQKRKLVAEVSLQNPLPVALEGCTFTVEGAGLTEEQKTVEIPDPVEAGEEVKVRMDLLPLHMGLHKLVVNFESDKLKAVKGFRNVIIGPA

human plasma FN = assay: ELISA-type assay of tTG bound to immobilised FN; type: binding; settings: 1 mM GTP-γS; ELISA using Cub 74
Method: as §1, with “Confirmation that the immobilised tTG was still active as a Ca^2+-dependent ε-(γ-glutamyl)lysine crosslinker was gained by measuring tTG activity with a microtitre assay that is based on the incorporation of biotinylated cadaverine into FN in the presence of 5 mM CaCl2 and 5 mM DTT (Jones et al. 1997) and compared with the activity of free tTG standard. To confirm that the cross-linking activity was Ca^2+-dependent, 5 mM CaCl2 was replaced with 5 mM EDTA pH 7.4.” left out

[2] = enzyme pre-treatment 15 mU/ml, RGD 100 μg/ml

Cn1c2ccccc2c2c3c(c4c5ccccc5n(CCC#N)c4c21)CNC3=O [GO6976]
effect on inhibition of attachment and spreading mediated by the RGD peptide (HOB cells; 5 μM GO6976, FN + RGD): significantly augment the inhibition
inhibition at 5 µM (HOB cells; 5 μM GO6976, RGD peptide, read-out: inhibition of attachment mediated by the tTG-FN complex): > 90%
inhibition at 5 µM (HOB cells; 5 μM GO6976, RGD peptide, read-out: inhibition of spreading mediated by the tTG-FN complex): ~85%
inhibition at 5 µM (HOB cells; 5 μM GO6976, control peptide RAD, read-out: inhibition of attachment on FN): ~30%
inhibition at 5 µM (HOB cells; 5 μM GO6976, control peptide RAD, read-out: inhibition of spreading on FN): ~30%

chondroitinase ABC
cell adhesion to FN (HOB cells; chondroitinase ABC 15 mU/ml): no significant affect
RGD-independent cell attachment on tTG-FN (HOB cells; [2]): only marginally affected
RGD-independent cell spreading on tTG-FN (HOB cells; [2]): did not significantly alter

GRADSP [RAD peptide]
cell attachment on FN compared to untreated cells (RAD 0) (HOB cells; 200 μg/ml RAD control peptide): reduction in cell attachment

O[C@@H](CS)[C@@H](O)CS [DTT]
increase of transamidating activity of FN-bound tTG (guinea pig liver tTG; DMEM with 5 mM DTT versus DMEM): approx 6 fold

CC(=O)CSc1n(C)cc[n+]1C.[Cl-] [R283]
cell adhesion on FN bound to R283-inactivated tTG relative to adhesion on FN with RGD peptide (HOB cells; 100 μM R283): twice
cell adhesion on FN bound to R283-inactivated tTG versus without R283 (HOB cells; 100 μM R283, with or without RGD peptide): not significantly different
transamidating activity of immobilised tTG (guinea pig liver tTG; 100 μM R283): completely blocked
tTG activity at the HOB cell-surface [1]: inhibited to negligible values

Nc1nc2c(ncn2[C@@H]2O[C@H](COP(=O)(O)OP(=O)(O)OP(O)(O)=S)[C@@H](O)[C@H]2O)c(=O)[nH]1 [GTP-γS]
RGD-independent cell attachment and spreading mediated by tTG-FN (HOB cells; 1 mM GTP-γS, RGD 100 μg/ml): partially but significantly reduced
transamidating activity of FN-bound tTG (guinea pig liver tTG; GTP-γS, DMEM with reducing agent, data not shown): acts as transamidating inhibitor
level of tTG immobilised on FN (human plasma FN): did not significantly alter
